Data: patent US11166980B2, “Compositions, systems, kits, and methods for treating an infection” (Novan, Inc., priority 2016, dated 2021)
Like-named read-outs stand apart in the source and are kept apart here.

Legend:
Type in all cases: cell-based
[1] = system: Trichophyton mentagrophytes; assay: Minimum inhibitory concentration (CLSI)
Description: (§1) The minimum inhibitory concentration (MIC) of Nitricil™ NVN1 was determined in vitro for 40 strains of fungi to determine the spectrum of antifungal activity. All MIC testing was conducted in accordance with the Clinical and Laboratory Standards Institute (CLSI) guidelines for antimicrobial testing of yeasts (M27-A2) and filamentous fungi (M38-A2), apart from the lipophilic Malassezia species, which were incubated in supplemented buffered RPMI-1640 medium. The challenge strains were exposed to a series of doubling dilutions of Nitricil™ NVN1 prepared in RPMI-1640 medium in triplicate. Fungal species were also challenged with ketoconazole, prepared in DMSO, as a comparator. Tubes were inoculated with fungal suspensions to a final concentration of 0.5-2.5×10^3 cells/mL for yeasts and 0.4-5.0×10^4 colony-forming units (CFU)/mL, for filamentous fungi. The MIC was determined following a 1- to 4-day incubation period.

[2] = system: Epidermophyton floccosum; assay: Minimum inhibitory concentration (CLSI)
Description: as §1

[3] = system: Fusarium solani; assay: Minimum inhibitory concentration (CLSI); settings: ATCC56480
Description: as §1

[4] = system: Trichophyton rubrum; assay: Minimum inhibitory concentration (CLSI)
Description: as §1

[5] = system: Fusarium oxysporum; assay: Minimum inhibitory concentration (CLSI); settings: ATCC62705
Description: as §1

[6] = system: Candida albicans; assay: Minimum inhibitory concentration (CLSI)
Description: as §1

[7] = system: Fusarium keratoplasticum; assay: Minimum inhibitory concentration (CLSI); settings: ATCC36031
Description: as §1

[8] = system: Candida lusitaniae; assay: Minimum inhibitory concentration (CLSI); settings: Clavispora lusitaniae, ATCC200950
Description: as §1

[9] = system: Candida tropicalis; assay: Minimum inhibitory concentration (CLSI); settings: NCPF8760
Description: as §1

[10] = system: 40 strains of fungi; assay: Minimum inhibitory concentration, whole panel
Description: as §1
The broad-spectrum antifungal activity of Nitricil™ NVN1 was assessed via growth inhibition experiments against 40 different fungal strains per CLSI M27-A2 and M38-A2 methodology (CLSI, 2008) for assessment of yeasts and filamentous fungi respectively utilizing ketoconazole as the antifungal comparator. […]

[11] = system: Malassezia furfur; assay: Minimum inhibitory concentration (supplemented RPMI-1640)
Description: as §1

CC(=O)N1CCN(c2ccc(OCC3COC(Cn4ccnc4)(c4ccc(Cl)cc4Cl)O3)cc2)CC1 (centres unmarked) [Ketoconazole, ketoconazole]
0.125 µg/mL: MIC ([1]; ATCC18749) | MIC ([2]; ATCC44685) | MIC ([4]; ATCC28188)
1 µg/mL: MIC ([1]; ATCC9533, strain ATCC #9533, read-out: MIC) | MIC ([1]; ATCC28939, strain ATCC #28939, read-out: MIC) | MIC ([2]; ATCC52061, strain ATCC #52061, read-out: MIC)
< 0.063 µg/mL: MIC ([4]; ATCC10218, strain ATCC #10218, read-out: MIC) | MIC ([4]; ATCC22402, strain ATCC #22402, read-out: MIC) | MIC ([4]; NCPF0118, strain NCPF #0118, read-out: MIC) | MIC ([6]; Candida albicans, ATCC10231, strain ATCC #10231, read-out: MIC) | MIC [8]
32 µg/mL: MIC [9]
> 32 µg/mL: MIC ([2]; ATCC52063, strain ATCC #52063, read-out: MIC) | MIC ([2]; ATCC52066, strain ATCC #52066, read-out: MIC) | MIC ([2]; NCPF5011, strain NCPF #5011, read-out: MIC) | MIC ([2]; NCPF5012, strain NCPF #5012, read-out: MIC) | MIC [3] | MIC ([4]; ATCC44697, strain ATCC #44697, read-out: MIC) | MIC ([4]; NCPF0113, strain NCPF #0113, read-out: MIC) | MIC ([4]; NCPF0295, strain NCPF #0295, read-out: MIC) | MIC ([4]; NCPF5025, strain NCPF #5025, read-out: MIC) | MIC ([4]; strain ATCC #MYA-4438, read-out: MIC) | MIC [5] | MIC ([6]; Candida albicans, ATCC96901, strain ATCC #96901, read-out: MIC) | MIC ([6]; Candida albicans, strain BLSI #112613Ca1, read-out: MIC) | MIC [7] | MIC ([11]; ATCC14521, strain ATCC #14521) | MIC ([11]; NCPF3349, strain NCPF #3349)
4 µg/mL: MIC ([2]; ATCC38826, strain ATCC #38826, read-out: MIC)
0.5 µg/mL: MIC ([1]; NCPF5024, strain NCPF #5024, read-out: MIC)
> 500 fold: fold range of MIC values for all fungal species tested [10]
0.25 µg/mL: MIC ([1]; NCPF0224, strain NCPF #0224, read-out: MIC)
>32.0 µg/mL: MIC ([6]; strain BLSI #112613Ca2)
16 µg/mL: MIC ([6]; Candida albicans, ATCC58716, strain ATCC #58716, read-out: MIC) | MIC ([11]; NCPF8211, strain NCPF #8211)
